pEC50: −log10 of the molar value. Read-outs that look alike come from different tables or passages of the source.
How the values were obtained:
primary human T-cells [1] = assay: Proliferation assay after 5 days (CellTiter-Glo, CD3 stimulation; PBS counter screen); type: cell-based; settings: CD3 stimulation; for Emax / Emax proliferation (% activation): 5 days, normalized to reference compound A1 as stimulator control = 100%, DMSO neutral control; for Emax: read-out: Emax proliferation (% activation); for pEC50: primary human T-cells, CellTiter-Glo after 5 days, EC50 of fitted sigmoidal curve, read-out: Tcell Proliferation CD3 EC50
Method in brief: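 Compounds were added to medium-only plates, and proliferation was read 5 days later as luminescence from CellTiter-Glo 2.0, whose ATP signal is proportional to cell number. Plates and reagent were equilibrated to room temperature for 45 min before an equal volume of reagent was added, with 15 min rocking.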

MV-3 cells = assay: T-cell - TCB - MV3 killing assay (MCSP-TCB, RFP object count by Incucyte); type: cell-based, human; settings: 5 d; for Emax / MSCP TCB killing MV-3 cells 5 d Emax: normalized: MCSP-TCB only = neutral control, 20 μM reference compound A1 = 100%; for Emax: read-out: MSCP TCB killing MV-3 cells 5 d Emax; for pEC50: primary human T-cells + MCSP-TCB, MV-3 RFP cells, read-out: MSCP TCB killing MV-3 cells 5 d EC50
primary human T-cells [2] = tested on: primary human T-cells
Protocol: As readouts for T-cell activation, IL2 secretion after 24 hours and proliferation after 5 days was measured. Increases in IL2 secretion and proliferation upon compound treatment were assessed as the % of the maximum of reference compound A1. […] As a counter screen and to make sure that no unwanted TCR-independent activation was triggered, PBS conditions were run for all compounds.
For coating of plates, PBS++ with PBS−− or PBS++ with CD3 antibody (concentration depending on donor and determined by CD3 titrations) was added 100 μl/well to Poly-D Lysine coated 96-well plates. Plates were sealed and incubated at room temperature for 3 hours on a table-top rocking platform. After incubation, plates were washed once with PBS−− and filled with 40 μl/well culture medium only. Compounds were then added (see next section) to medium only plates. After 3 hours of culturing the T-cells, cells were filtered through a cell strainer (Miltenyi Biotech, #130-041-407), counted again and concentration was adjusted to 1.25 Mio/ml.
Cells were then seeded 80 μl/well to the 40 μl/well including dispensed compounds according to plate layout. By adding cells, compounds were further diluted 1:3, and resulting in 100 k cells/120 μl/well. After 24 hours 40 μl of supernatant was collected carefully from the top while not disturbing the cells and transferred into a round bottom 96 well plate. Collected and frozen supernatant was used for detection of IL2 using the IL-2 Human ProQuantum Immunoassay Kit (Invitrogen) or using the Human IL-2 ELISA Kit (Thermo Fisher).
Compounds were added in a 5 or 6pt dose response with the Tecan D300e Digital Dispenser, all conditions 3 times more concentrated than the end-concentration, since cells are added afterwards (80 μl cells to 40 μl prepared medium with treatment). The DR was starting at 20 μM or 10 μM final top concentration and a dilution factor of 3.333. The positive control was the reference compound A1 that was added in a dose response as well, additionally to 3 wells of only 20 μM representing the positive stimulator control. All wells were normalized with DMSO to a final concentration of 0.6% (0.2% end-concentration).
The immunoassay is done following the manufacturer's manual (Invitrogen, #A35603). Additional information: For the immunoassay, MicroAmp™ EnduraPlate™ Optical 384-Well plates are used. Frozen supernatant is thawed and centrifuged for 5 minutes at 1000×g, both steps at 4° C. After centrifugation, required sample amount is taken from the top, and in a separate LightCycler V-bottom plate (working plate) diluted with assay dilution buffer, dilution factor depending on the PBS or CD3 condition but at least 1:3. IL-2 standard and blanks are prepared in the same V-bottom plate, standard with a range of 0.0128-5000 pg/ml (extended version). After preparation, 5 μl of sample dilutions or standard/blanks are transferred to the optical 384-well plate (assay plate) and the 10 μl reaction protocol is being followed. For measurement, the QuantStudio 12K Flex system is used.
ELISA is done following the manufacturer's manual (Thermo Fisher Scientific, #88-7025-88). Additional information: For the ELISA Nunc MaxiSorp 96 well plates are used. Frozen supernatant is thawed and centrifuged for 5 minutes at 1000×g, both steps at 4° C. After that, required sample amount is taken from the top, and in a separate V-bottom plate diluted with ELISA diluent, dilution factor depending on the PBS or CD3 condition. IL-2 standard and blanks are prepared in the same V-bottom plate. After preparation, 50 μl of sample dilutions and 100 μl of standard or blanks are transferred to the Nunc plates.
CD3 and PBS plates were analysed separately in Genedata Screener using Roche Normalization PCT_POS_CTRL with DMSO set as Neutral Control and 20 μM of the reference compound A1 set as Stimulator Control/100%.
For CD3 conditions EC50 and Emax of the fitted sigmoidal curve were reported.

Compound | pEC50 (primary human T-cells [2]) | Emax (primary human T-cells [1]; Homo sapiens, T-cell, 120 h) [%] | pEC50 (primary human T-cells [1]; Homo sapiens, T-cell, 120 h) | Emax (MV-3 cells; Homo sapiens, MV-3, 120 h) [%] | pEC50 (MV-3 cells) | pEC50 (primary human T-cells [1]) | pEC50 (MV-3 cells; Homo sapiens, MV-3, 120 h) | Emax proliferation (% activation) (primary human T-cells [1]) | MSCP TCB killing MV-3 cells 5 d Emax (MV-3 cells) [%]
CC(C)(CO)c1noc(-c2cc3c(cc2F)S(=O)(=O)C[C@H](N)C(=O)N3Cc2ccc(Cl)cc2)n1 (racemic) [Example 46] | 6.16 | 94 | 5.74 | 83 | 5.98 | – | – | – | –
CCc1cn(-c2cc3c(cc2F)S(=O)(=O)C[C@H](N)C(=O)N3Cc2ccc(Cl)cc2)nn1 [Example 3, (3R)-3-amino-5-[(4-chlorophenyl)methyl]-7-(4-ethyltriazol-1-yl)-8-fluoro-1,1-dioxo-2,3-dihydro-1λ^6,5-benzothiazepin-4-one] | 4.92 | 68 | 5.37 | 100 | 5.81 | – | – | – | –
CC(C)(C)n1nnc(-c2cc3c(cc2F)S(=O)(=O)C[C@H](N)C(=O)N3Cc2ccc(Cl)cc2)n1 [Example 8, (3R)-3-amino-7-(2-tert-butyltetrazol-5-yl)-5-[(4-chlorophenyl)methyl]-8-fluoro-1,1-dioxo-2,3-dihydro-1λ^6,5-benzothiazepin-4-one] | 7.03 | 130 | 7.07 | 96 | – | – | 7.15 | – | –
CN1CCC(n2nnc(-c3cc4c(cc3F)S(=O)(=O)C[C@H](N)C(=O)N4Cc3ccc(Cl)cc3)n2)C1 (stereo partly drawn) [Example 12, (3R)-3-amino-5-[(4-chlorophenyl)methyl]-8-fluoro-7-[2-(1-methylpyrrolidin-3-yl)tetrazol-5-yl]-1,1-dioxo-2,3-dihydro-1λ^6,5-benzothiazepin-4-one] | 6.01 | 84 | 5.99 | 96 | 6.04 | – | – | – | –
CC(C)(C)n1nnc(-c2ccc3c(c2)N(Cc2ccc(Cl)cc2)C(=O)[C@@H](N)CS3(=O)=O)n1 [Example 36] | 6.33 | 86 | 6.39 | 81 | 6.41 | – | – | – | –
CCc1noc(-c2cc3c(cc2F)S(=O)(=O)C[C@H](N)C(=O)N3Cc2ccc(Cl)cc2)n1 [Example 41, (3R)-3-Amino-5-[(4-chlorophenyl)methyl]-7-(3-ethyl-1,2,4-oxadiazol-5-yl)-8-fluoro-1,1-dioxo-2,3-dihydro-1λ^6,5-benzothiazepin-4-one] | – | 61 | 5.03 | 92 | 6.64 | – | – | – | –
CC(C)(C)c1noc(-c2cc3c(cc2F)S(=O)(=O)C[C@H](N)C(=O)N3Cc2ccc(Cl)cc2)n1 [Example 43, (3R)-3-Amino-7-(3-tert-butyl-1,2,4-oxadiazol-5-yl)-5-[(4-chlorophenyl)methyl]-8-fluoro-1,1-dioxo-2,3-dihydro-1λ^6,5-benzothiazepin-4-one] | 5.63 | 143 | 6.58 | 102 | – | – | 7.40 | – | –
N[C@H]1CS(=O)(=O)c2cc(F)c(-c3nc(CC(F)(F)F)no3)cc2N(Cc2ccc(Cl)cc2)C1=O [Example 49, (3R)-3-amino-5-[(4-chlorophenyl)methyl]-8-fluoro-1,1-dioxo-7-[3-(2,2,2-trifluoroethyl)-1,2,4-oxadiazol-5-yl]-2,3-dihydro-1λ^6,5-benzothiazepin-4-one] | 5.66 | 112 | 6.23 | 100 | 6.77 | – | – | – | –
CC(C)(C)c1nnc(-c2cc3c(cc2F)SC[C@H](N)C(=O)N3Cc2ccc(OC(F)(F)F)cc2)o1 [Example 54, (3R)-3-amino-7-(5-tert-butyl-1,3,4-oxadiazol-2-yl)-8-fluoro-5-[[4-(trifluoromethoxy)phenyl]methyl]-2,3-dihydro-1,5-benzothiazepin-4-one] | – | 116 | 5.95 | 123 | – | – | 6.52 | – | –
N[C@H]1CS(=O)(=O)c2cc(F)c(-c3nnc(CC(F)(F)F)o3)cc2N(Cc2ccc(OC(F)(F)F)cc2)C1=O [Example 56, (3R)-3-Amino-8-fluoro-1,1-dioxo-7-[5-(2,2,2-trifluoroethyl)-1,3,4-oxadiazol-2-yl]-5-[[4-(trifluoromethoxy)phenyl]methyl]-2,3-dihydro-1λ^6,5-benzothiazepin-4-one] | – | 136 | 6.38 | 123 | 6.96 | – | – | – | –
CC(C)(C)c1nnc(-c2cc3c(cc2F)S(=O)(=O)C[C@H](N)C(=O)N3Cc2ccc(Cl)cc2)o1 [Example 63, (3R)-3-amino-7-(5-tert-butyl-1,3,4-oxadiazol-2-yl)-5-[(4-chlorophenyl)methyl]-8-fluoro-1,1-dioxo-2,3-dihydro-1λ^6,5-benzothiazepin-4-one] | 7.17 | 141 | 7.31 | 93 | – | – | 7.70 | – | –
CCc1nnc(-c2cc3c(cc2F)S(=O)(=O)C[C@H](N)C(=O)N3Cc2ccc(Cl)cc2)o1 [Example 72, (3R)-3-Amino-5-[(4-chlorophenyl)methyl]-7-(5-ethyl-1,3,4-oxadiazol-2-yl)-8-fluoro-1,1-dioxo-2,3-dihydro-1λ^6,5-benzothiazepin-4-one] | 5.49 | 124 | 5.94 | 115 | 6.51 | – | – | – | –
N[C@H]1CS(=O)(=O)c2cc(F)c(-c3nnc(C4CCCCC4(F)F)o3)cc2N(Cc2ccc(Cl)cc2)C1=O (stereo partly drawn) [Example 74, (3R)-3-Amino-5-[(4-chlorophenyl)methyl]-7-[5-(2,2-difluorocyclohexyl)-1,3,4-oxadiazol-2-yl]-8-fluoro-1,1-dioxo-2,3-dihydro-1λ^6,5-benzothiazepin-4-one] | 7.26 | 180 | 7.31 | 97 | 7.70 | – | – | – | –
(3R)-3-amino-5-[(4-chlorophenyl)methyl]-7-[5-(2,2-difluoromorpholin-4-yl)-1,3,4-oxadiazol-2-yl]-1,1-dioxo-2,3-dihydro-1λ^6,5-benzothiazepin-4-one [Example 413] | 5.97 | – | – | – | – | 6.71 | – | 160 | –
(3R)-3-amino-7-[5-[4-(chloromethyl)-4-(hydroxymethyl)cyclohexyl]-1,3,4-oxadiazol-2-yl]-5-[(4-chlorophenyl)methyl]-8-fluoro-1,1-dioxo-2,3-dihydro-1λ^6.5-benzothiazepin-4-one [Example 482] | 5.90 | – | – | – | – | 6.10 | – | 106 | –

Continued, in another order:

pEC50 (primary human T-cells [2]) | Compound | Emax (primary human T-cells [1]; Homo sapiens, T-cell, 120 h) [%] | pEC50 (primary human T-cells [1]; Homo sapiens, T-cell, 120 h) | Emax (MV-3 cells; Homo sapiens, MV-3, 120 h) [%] | pEC50 (MV-3 cells) | pEC50 (primary human T-cells [1]) | pEC50 (MV-3 cells; Homo sapiens, MV-3, 120 h) | Emax proliferation (% activation) (primary human T-cells [1]) | MSCP TCB killing MV-3 cells 5 d Emax (MV-3 cells) [%]
6.10 | N[C@H]1C[S+]([O-])c2cc(F)c(-c3noc(N4CCOC5(CC5)C4)n3)cc2N(Cc2ccc(Cl)cc2)C1=O (single isomer, unassigned; epimer a) [Example 211] | – | – | 86 | – | 6.49 | 7.35 | – | –
6.23 | CC(C)(C)c1nnc(-c2cc3c(cc2F)[S+]([O-])C[C@H](N)C(=O)N3Cc2ccc(Cl)cc2)o1 (single isomer, unassigned; epimer b) [Example 187] | – | – | – | 5.79 | 5.81 | – | 92 | 57
7.47 | N[C@H]1CS(=O)(=O)c2cc(F)c(-c3nnc(C4CCCC(F)(F)C4)o3)cc2N(Cc2ccc(Cl)cc2)C1=O (stereo partly drawn) [Example 91, (3R)-3-amino-5-[(4-chlorophenyl)methyl]-7-[5-(3,3-difluorocyclohexyl)-1,3,4-oxadiazol-2-yl]-8-fluoro-1,1-dioxo-2,3-dihydro-1λ^6,5-benzothiazepin-4-one] | 139 | 6.90 | 93 | 7.70 | – | – | – | –
6.62 | NC(c1nnc(-c2cc3c(cc2F)S(=O)(=O)C[C@H](N)C(=O)N3Cc2ccc(Cl)cc2)o1)C(F)(F)F (stereo partly drawn) [Example 122, (3R)-3-amino-7-[5-(1-amino-2,2,2-trifluoro-ethyl)-1,3,4-oxadiazol-2-yl]-5-[(4-chlorophenyl)methyl]-8-fluoro-1,1-dioxo-2,3-dihydro-1λ^6,5-benzothiazepin-4-one] | 92 | 6.11 | 86 | 6.29 | – | – | – | –
7.12 | COC(=O)N1CCC(C)(c2nnc(-c3cc4c(cc3F)S(=O)(=O)C[C@H](N)C(=O)N4Cc3ccc(Cl)cc3)o2)CC1 [Example 171, methyl 4-methyl-4-[5-[(3R)-3-amino-5-[(4-chlorophenyl)methyl]-8-fluoro-1,1,4-trioxo-2,3-dihydro-1λ^6,5-benzothiazepin-7-yl]-1,3,4-oxadiazol-2-yl]piperidine-1-carboxylate] | 93 | 7.26 | 100 | 7.40 | – | – | – | –
6.80 | CC(C)(C)c1nnc(-c2cc3c(cc2F)[S+]([O-])C[C@H](N)C(=O)N3Cc2ccc(Cl)cc2)o1 (stereo partly drawn) [Example 186, (3R)-3-amino-7-(5-tert-butyl-1,3,4-oxadiazol-2-yl)-5-[(4-chlorophenyl)methyl]-8-fluoro-1-oxo-2,3-dihydro-1λ^4,5-benzothiazepin-4-one] | 94 | – | – | 6.89 | 6.15 | – | – | 100
6.53 | CC(C)(C)c1cn(-c2cc3c(cc2F)S(=O)(=O)C[C@H](N)C(=O)N3Cc2ccc(Cl)cc2)cn1 [Example 527] | – | – | – | – | 5.89 | – | 69 | –
